How the values were obtained:
Type in all cases: in vivo
[1] = system: pigweed (Amaranthus retroflexus); assay: Test B pre/postemergence
Text: (§1) Seeds selected from barnyardgrass (Echinochloa crus-galli), Surinam grass (Brachiaria decumbens), cocklebur (Xanthium strumarium), corn (Zea mays), crabgrass (Digitaria sanguinalis), giant foxtail (Setaria faberii), lambsquarters (Chenopodium album), morningglory (Ipomoea coccinea), pigweed (Amaranthus retroflexus), velvetleaf (Abutilon theophrasti), and wheat (Triticum aestivum) were planted and treated preemergence with test chemicals formulated in a non-phytotoxic solvent mixture which included a surfactant.
(§2) At the same time, plants selected from these crop and weed species and also blackgrass (Alopecurus myosuroides) and wild oat (Avena fatua) were treated with postemergence applications of test chemicals formulated in the same manner. Plants ranged in height from 2 to 18 cm (1- to 4-leaf stage) for postemergence treatments. Plant species in the flooded paddy test consisted of rice (Oryza sativa), umbrella sedge (Cyperus difformis), duck salad (Heteranthera limosa) and barnyardgrass (Echinochloa crus-galli) grown to the 2-leaf stage for testing. Treated plants and controls were maintained in a greenhouse for 13 to 15 days, after which time all species were compared to controls and visually evaluated. Plant response ratings, summarized in Table B, are based on a scale of 0 to 100 where 0 is no effect and 100 is complete control. A dash (-) response means no test result.

[2] = system: crabgrass (Digitaria sanguinalis); assay: Test B pre/postemergence
Text: as §1, §2

[3] = system: Surinam grass (Brachiaria decumbens); assay: Test B pre/postemergence
Text: as §1, §2

[4] = system: lambsquarters (Chenopodium album); assay: Test B pre/postemergence
Text: as §1, §2

[5] = system: velvetleaf (Abutilon theophrasti); assay: Test B pre/postemergence
Text: as §1, §2

[6] = system: barnyardgrass (Echinochloa crus-galli); assay: Test B pre/postemergence
Text: as §1, §2

[7] = system: wheat (Triticum aestivum); assay: Test B pre/postemergence
Text: as §1, §2

[8] = system: morningglory (Ipomoea coccinea); assay: Test B pre/postemergence
Text: as §1, §2

[9] = system: cocklebur (Xanthium strumarium); assay: Test B pre/postemergence
Text: as §1, §2

corn (Zea mays) = assay: Test B pre/postemergence
Text: as §1, §2

[10] = system: giant foxtail (Setaria faberii); assay: Test B pre/postemergence
Text: as §1, §2

wild oat (Avena fatua) = assay: Test B postemergence; settings: for Oat, Wild plant response rating: 125 g ai/ha, scale 0 to 100 (0 no effect, 100 complete control); for Plant response rating, Oat, Wild: 500 g ai/ha, scale 0 to 100
Procedure, shortened: (§3)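 Scores reflect visual comparison with untreated controls, where 0 means no effect and 100 complete control. Plants stayed 13 to 15 days in the greenhouse after pre- or postemergence treatment with compounds carried in a non-phytotoxic solvent and surfactant.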

[11] = system: blackgrass (Alopecurus myosuroides); assay: Test B postemergence; settings: for Blackgrass plant response rating: 125 g ai/ha, scale 0 to 100 (0 no effect, 100 complete control); for Plant response rating, Blackgrass: 500 g ai/ha, scale 0 to 100
Procedure, shortened: as §3

rice (Oryza sativa) = assay: Test B flooded paddy test; settings: Flood, 1000 g ai/ha; scale 0 to 100
Procedure, shortened: (§4)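 Plants were grown to the 2-leaf stage before treatment, then kept in a greenhouse for 13 to 15 days. Injury was rated visually against untreated controls on a 0 to 100 scale, where 0 is no effect and 100 is complete control.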

[12] = system: duck salad (Heteranthera limosa); assay: Test B flooded paddy test; settings: Flood, 1000 g ai/ha; scale 0 to 100
Procedure, shortened: as §4

[13] = system: umbrella sedge (Cyperus difformis); assay: Test B flooded paddy test; settings: Flood, 1000 g ai/ha; scale 0 to 100
Procedure, shortened: as §4

[14] = system: barnyardgrass (Echinochloa crus-galli); assay: Test B flooded paddy test; settings: Flood, 1000 g ai/ha; scale 0 (no effect) to 100 (complete control)
Procedure, shortened: as §4

[15] = Postemergence, 125 g ai/ha, scale 0 to 100 (0 no effect, 100 complete control)
[16] = Postemergence, 500 g ai/ha, scale 0 to 100
[17] = Preemergence, 125 g ai/ha, scale 0 to 100 (0 no effect, 100 complete control)
[18] = Preemergence, 500 g ai/ha, scale 0 to 100 (0 no effect, 100 complete control)

CC=NNc1nc(C2CC2)nc(C(=O)OC)c1Br [Compound 124]
Pigweed plant response rating [1, 15]: 50 | Plant response rating, Pigweed [1, 16]: 90 | Plant response rating, Pigweed [1, 17]: 20 | Plant response rating, Pigweed [1, 18]: 70 | Crabgrass plant response rating [2, 15]: 10 | Plant response rating, Crabgrass [2, 16]: 40 | Plant response rating, Crabgrass [2, 17]: 0 | Plant response rating, Crabgrass [2, 18]: 0 | Surinam Grass plant response rating [3, 15]: 0 | Plant response rating, Surinam Grass [3, 16]: 0 | Plant response rating, Surinam Grass [3, 17]: 0 | Plant response rating, Surinam Grass [3, 18]: 0 | Lambsquarters plant response rating [4, 15]: 40 | Plant response rating, Lambsquarters [4, 16]: 90 | Plant response rating, Lambsquarters [4, 17]: 0 | Plant response rating, Lambsquarters [4, 18]: 70 | Velvetleaf plant response rating [5, 15]: 20 | Plant response rating, Velvetleaf [5, 16]: 50 | Plant response rating, Velvetleaf [5, 17]: 20 | Plant response rating, Velvetleaf [5, 18]: 50 | Barnyardgrass plant response rating [6, 15]: 0 | Plant response rating, Barnyardgrass [6, 16]: 40 | Plant response rating, Barnyardgrass [6, 17]: 0 | Plant response rating, Barnyardgrass [6, 18]: 0 | Wheat plant response rating [7, 15]: 0 | Plant response rating, Wheat [7, 16]: 30 | Plant response rating, Wheat [7, 17]: 0 | Plant response rating, Wheat [7, 18]: 0 | Morningglory plant response rating [8, 15]: 50 | Plant response rating, Morningglory [8, 16]: 100 | Plant response rating, Morningglory [8, 17]: 10 | Plant response rating, Morningglory [8, 18]: 60 | Cocklebur plant response rating [9, 15]: 30 | Plant response rating, Cocklebur [9, 16]: 80 | Plant response rating, Cocklebur [9, 17]: 10 | Plant response rating, Cocklebur [9, 18]: 60 | Corn plant response rating (corn (Zea mays); [15]): 0 | Plant response rating, Corn (corn (Zea mays); [16]): 0 | Plant response rating, Corn (corn (Zea mays); [17]): 0 | Plant response rating, Corn (corn (Zea mays); [18]): 0 | Foxtail, Giant plant response rating [10, 15]: 10 | Plant response rating, Foxtail, Giant [10, 16]: 20 | Plant response rating, Foxtail, Giant [10, 17]: 0 | Plant response rating, Foxtail, Giant [10, 18]: 0 | Oat, Wild plant response rating (wild oat (Avena fatua)): 0 | Plant response rating, Oat, Wild (wild oat (Avena fatua)): 30 | Blackgrass plant response rating [11]: 0 | Plant response rating, Blackgrass [11]: 40 | Plant response rating, Rice (rice (Oryza sativa)): 0 | Plant response rating, Ducksalad [12]: 0 | Plant response rating, Sedge, Umbrella [13]: 0 | Plant response rating, Barnyardgrass [14]: 0

CCOC(=O)c1nc(C2CC2)nc(NCCN(C)C)c1Br [Compound 38]
Pigweed plant response rating [1, 15]: 30 | Plant response rating, Pigweed [1, 16]: 30 | Plant response rating, Pigweed [1, 17]: 10 | Pigweed plant response rating [1, 18]: 70 | Crabgrass plant response rating [2, 15]: 0 | Plant response rating, Crabgrass [2, 16]: 20 | Plant response rating, Crabgrass [2, 17]: 0 | Crabgrass plant response rating [2, 18]: 0 | Surinam Grass plant response rating [3, 15]: 0 | Plant response rating, Surinam Grass [3, 16]: 20 | Plant response rating, Surinam Grass [3, 17]: 0 | Surinam Grass plant response rating [3, 18]: 0 | Lambsquarters plant response rating [4, 15]: 20 | Plant response rating, Lambsquarters [4, 16]: 60 | Plant response rating, Lambsquarters [4, 17]: 20 | Lambsquarters plant response rating [4, 18]: 90 | Velvetleaf plant response rating [5, 15]: 0 | Plant response rating, Velvetleaf [5, 16]: 50 | Plant response rating, Velvetleaf [5, 17]: 0 | Velvetleaf plant response rating [5, 18]: 0 | Barnyardgrass plant response rating [6, 15]: 0 | Plant response rating, Barnyardgrass [6, 16]: 0 | Plant response rating, Barnyardgrass [6, 17]: 0 | Barnyardgrass plant response rating [6, 18]: 0 | Wheat plant response rating [7, 15]: 0 | Plant response rating, Wheat [7, 16]: 0 | Plant response rating, Wheat [7, 17]: 0 | Plant response rating, Wheat [7, 18]: 0 | Morningglory plant response rating [8, 15]: 10 | Plant response rating, Morningglory [8, 16]: 40 | Plant response rating, Morningglory [8, 17]: 0 | Morningglory plant response rating [8, 18]: 50 | Cocklebur plant response rating [9, 15]: 0 | Plant response rating, Cocklebur [9, 16]: 0 | Plant response rating, Cocklebur [9, 17]: 0 | Cocklebur plant response rating [9, 18]: 0 | Corn plant response rating (corn (Zea mays); [15]): 0 | Plant response rating, Corn (corn (Zea mays); [16]): 0 | Plant response rating, Corn (corn (Zea mays); [17]): 0 | Corn plant response rating (corn (Zea mays); [18]): 10 | Foxtail, Giant plant response rating [10, 15]: 0 | Plant response rating, Foxtail, Giant [10, 16]: 0 | Plant response rating, Foxtail, Giant [10, 17]: 0 | Foxtail, Giant plant response rating [10, 18]: 0 | Oat, Wild plant response rating (wild oat (Avena fatua)): 0 | Plant response rating, Oat, Wild (wild oat (Avena fatua)): 0 | Blackgrass plant response rating [11]: 0 | Plant response rating, Blackgrass [11]: 0 | Plant response rating, Rice (rice (Oryza sativa)): 0 | Plant response rating, Ducksalad [12]: 0 | Plant response rating, Sedge, Umbrella [13]: 0 | Plant response rating, Barnyardgrass [14]: 0

— patent US8802597B2, “Herbicidal pyrimidines” (E I du Pont de Nemours and Company, priority 2003, dated 2014)
